Test results reported in patent US10294212B2 (CURADEV PHARMA PRIVATE LTD., priority 2013, dated 2019).

Legend:
[1] = molecular target: Human indoleamine 2,3-dioxygenase1 (hIDO1) (Homo sapiens (Human), UniProt P14902); assay: In-vitro IDO1 enzyme assay (conversion of L-tryptophan to KYN); assay type: biochemical; conditions: read-out: IC50 (IDO1) Enz
In short: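 Kynurenine formation quantified by HPLC absorbance at 360 nm or LC/MS/MS after TCA quench and 15 min at 65 °C. Reaction: 10 nM N-His hIDO1, 30 μM tryptophan, ascorbate/methylene blue/catalase, pH 6.5 phosphate buffer, 37 °C for 30 min. Inhibition relative to 1% DMSO vehicle, fitted to IC50.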

IDO1 in HeLa cells = IDO1 in HeLa cells (Homo sapiens (Human), UniProt P14902); assay: HeLa cell based IDO1 assay (IFNγ-induced, KYN in supernatant)
In short: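 Kynurenine in the supernatant, quantified by C-18 HPLC with 360 nm absorbance after TCA hydrolysis (65 °C, 15 min), was the read-out. Compounds (typically 10 μM to 1 nM) were added in HBSS containing 80 μM tryptophan to HeLa cells pre-induced overnight with 50 ng/mL IFNγ. IC50 came from nonlinear fits of % inhibition versus 1% DMSO vehicle.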

[2] = molecular target: Human TDO (hTDO)-transfected CHO-K1 cells (Homo sapiens (Human), UniProt P48775); assay: CHO-K1 cell based TDO assay; conditions: hTDO cellular assay
In short: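 Kynurenine output was read by LC/MS/MS after TCA precipitation and 15 min at 65° C. Before that, CHO-K1 cells stably carrying human TDO2 were incubated 2 h with compounds (typically 31 μM to 10 nM) and 80 μM L-tryptophan in HBSS. Decrease versus DMSO vehicle gave percent inhibition, then IC50.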

CT-26 tumor cells = assay: Antitumor activity in syngeneic CT26/Balb/C tumor model; assay type: in vivo, Balb/c mice; conditions: 60 mg/kg oral BID, vs control animals
Description: Tumor volume reduction by the test compounds was evaluated in a syngeneic CT26/Balb/C tumor model as described below. Balb/c mice were purchased from Vivo Bio Tech, Hyderabad, India, and housed in sterile conditions using an individually ventilated caging system manufactured by Citizen Industries Limited, Ahmedabad, India. Mice were quarantined for at least 7 days before experimentation.
Mouse colorectal tumor forming cells, CT-26 cells (ATCC, USA), were cultured in DMEM and 10% FBS medium supplemented with lx non-essential amino acid (HiMedia) in an incubator maintained at 37QC with 95% humidity and 5% CO2. One million (1×10^6) live syngeneic CT-26 cells suspended in 0.2 ml of […] were injected subcutaneously in the right flank of each Balb/c mouse (age 6-8 weeks, weight: about 18-20 g) on day 1 under anesthesia. Eight to ten mice were used per experimental group. Subcutaneous cells formed localized tumors. Animals were visually inspected twice a day. Tumor measurements were initiated 7 days post injection using Vernier calipers. Tumor sizes at day 7 ranged typically from 80-150 mm^3. Tumor dimensions were subsequently measured every 3 to 4 days and tumor volume was determined. Assuming tumors to be ellipsoid, tumor volume was calculated using the formula: V=(D×d×d)/2
Where D is longest diameter in mm, and d is shortest diameter in mm.
When the average tumor volume in the mice reached 100-120 mm^3, tumor bearing mice were randomized for treatment with either test compound or vehicle alone. Test compounds were formulated generally in normal saline comprising Polyethylene Glycol (PEG400), Propylene glycol (PG) and Dimethyl Acetamide (DACM) at pH 4.5-5.0 and dosed orally at ranges 40-75 mg/kg (dose volume—5 mL/kg) twice a day. Solutions of the compounds were prepared immediately before dosing the animals. In general, tumor volume was measured at various times post-dosing from day 1 to day 34.
A non-limiting example is provided. Tumor bearing mice were dosed orally twice a day at 40 mg/kg body weight with either vehicle control or test compound 2 formulated in 30% Polyethylene Glycol (PEG-400), 20% Propylene glycol (PG) in normal saline. Tumors were measured and tumor volumes were determined at 1, 4, 6, 9, 11, and 14 days after the first dose as described above. Animals were sacrificed on day 14. Tumor and blood samples were harvested for further analysis. Just prior to animal sacrifice, blood was drawn retro-orbitally into a tube containing 0.2% EDTA for plasma collection. The harvested tumors were weighed and snap frozen in liquid nitrogen immediately. Plasma KYN concentrations are measured for pharmacokinetic analysis using LC/MS/MS using an API4000 mass spectrometer (Applied Biosystems) coupled to a Shimadzu Prominence LC system fitted with a C18 column.

Sequence of Human TDO (hTDO)-transfected CHO-K1 cells (P48775 whole entry): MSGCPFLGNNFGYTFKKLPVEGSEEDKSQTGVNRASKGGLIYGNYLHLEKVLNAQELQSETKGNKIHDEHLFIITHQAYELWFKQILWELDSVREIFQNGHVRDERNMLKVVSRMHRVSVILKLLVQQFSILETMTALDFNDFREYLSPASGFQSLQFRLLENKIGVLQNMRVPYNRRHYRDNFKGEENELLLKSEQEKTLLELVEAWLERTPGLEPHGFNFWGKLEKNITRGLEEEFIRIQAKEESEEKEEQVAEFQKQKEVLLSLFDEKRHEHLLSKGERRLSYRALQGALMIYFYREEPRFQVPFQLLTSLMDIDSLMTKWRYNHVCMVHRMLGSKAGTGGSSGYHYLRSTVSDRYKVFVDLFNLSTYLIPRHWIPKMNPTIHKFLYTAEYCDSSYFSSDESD
Sequence of Human indoleamine 2,3-dioxygenase1 (hIDO1) (P14902 whole entry): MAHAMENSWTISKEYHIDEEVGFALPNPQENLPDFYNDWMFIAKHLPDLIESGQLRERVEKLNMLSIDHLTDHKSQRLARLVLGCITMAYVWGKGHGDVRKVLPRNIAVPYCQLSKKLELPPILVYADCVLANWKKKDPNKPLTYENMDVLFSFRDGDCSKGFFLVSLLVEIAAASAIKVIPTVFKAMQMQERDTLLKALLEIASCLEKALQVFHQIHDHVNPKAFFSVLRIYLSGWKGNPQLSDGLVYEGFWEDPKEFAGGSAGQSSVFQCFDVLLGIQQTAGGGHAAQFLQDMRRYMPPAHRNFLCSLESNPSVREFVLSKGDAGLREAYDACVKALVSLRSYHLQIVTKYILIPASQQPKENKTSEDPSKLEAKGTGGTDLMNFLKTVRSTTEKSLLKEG
Sequence of IDO1 in HeLa cells (P14902 whole entry): as above

IC50 [1] [nM]	IC50 (IDO1 in HeLa cells) [nM]	IC50 [2] [nM]	Molecule	reduction of tumor growth (CT-26 tumor cells)
< 200	< 200	500 to 2000	CC(C)c1nccc2c(Nc3ccc(F)c(Cl)c3)c(N)oc12 [Compound 83, N^3-(3-Chloro-4-fluorophenyl)-7-isopropylfuro[2,3-c]pyridine-2,3-diamine]	–
< 200	< 200	> 2000	Nc1oc2c(-c3ccc4ccccc4c3)nccc2c1Nc1ccc(F)c(Cl)c1 [Compound 247, N^3-(3-Chloro-4-fluorophenyl)-7-(naphthalen-2-yl)furo[2,3-c]pyridine-2,3-diamine]	–
< 200	< 200	500 to 2000	N#Cc1ccc2c(Nc3cccc(C(F)(F)F)c3)c(N)oc2c1 [Compound 113, 2-Amino-3-((3-(trifluoromethyl)phenyl)amino)benzofuran-6-carbonitrile]	–
< 200	< 200	500 to 2000	Nc1sc2c(-c3ccncc3)cccc2c1Nc1ccc(F)c(Cl)c1 [Compound 213, N^3-(3-Chloro-4-fluorophenyl)-7-(pyridin-4-yl)benzo[b]thiophene-2,3-diamine]	–
< 200	< 200	500 to 2000	Cc1cc(-c2nc(F)cc3c(Nc4ccc(F)c(Cl)c4)c(N)oc23)ccn1 [Compound 244, N^3-(3-Chloro-4-fluorophenyl)-5-fluoro-7-(2-methylpyridin-4-yl)furo[2,3-c]pyridine-2,3-diamine]	–
< 200	< 200	500 to 2000	Nc1oc2cnccc2c1Nc1cccc(C(F)F)c1 [Compound 65, N^3-(3-(Difluoromethyl)phenyl)furo[2,3-c]pyridine-2,3-diamine]	–
< 200	< 200	500 to 2000	Nc1oc2c(-c3ccncc3)nc(F)cc2c1Nc1ccc(F)c(F)c1 [Compound 188, N^3-(3,4-Difluorophenyl)-5-fluoro-7-(pyridin-4-yl)furo[2,3-c]pyridine-2,3-diamine]	–
< 200	< 200	< 500	Nc1sc2ccccc2c1Nc1ccc(F)c(F)c1 [Compound 211, N^3-(3,4-Difluorophenyl)benzo[b]thiophene-2,3-diamine]	–
< 200	< 200	< 500	Nc1oc2c(Cl)nccc2c1Nc1ccc(F)c(Cl)c1 [Compound 166, 7-Chloro-N3-(3-chloro-4-fluorophenyl)furo[2,3-c]pyridine-2,3-diamine]	26%-38
< 200	< 200	> 2000	Nc1sc2ccccc2c1Nc1ccc(Cl)c(C(F)(F)F)c1 [Compound 124, N^3-(4-Chloro-3-(trifluoromethyl)phenyl)benzo[b]thiophene-2,3-diamine]	–
< 200	< 200	500 to 2000	C#Cc1cc(Nc2c(N)oc3c(-c4ccccc4)nccc23)ccc1F [Compound 110, N^3-(3-Ethynyl-4-fluorophenyl)-7-phenylfuro[2,3-c]pyridine-2,3-diamine]	–
< 200	< 200	500 to 2000	Nc1oc2c(-c3ccncc3)nccc2c1Nc1cccc(C(F)(F)F)c1 [Compound 203, 7-(Pyridin-4-yl)-N^3-(3-(trifluoromethyl)phenyl)furo[2,3-c]pyridine-2,3-diamine]	–
< 200	< 200	500 to 2000	COc1ccccc1-c1nccc2c(Nc3ccc(F)c(Cl)c3)c(N)oc12 [Compound 98, N^3-(3-Chloro-4-fluorophenyl)-7-(2-methoxyphenyl)furo[2,3-c]pyridine-2,3-diamine]	–

More lines, now with the values behind:

Molecule	IC50 [1] [nM]	IC50 (IDO1 in HeLa cells) [nM]	IC50 [2] [nM]	reduction of tumor growth (CT-26 tumor cells)
CCc1nccc2c(Nc3ccc(F)c(Cl)c3)c(N)oc12 [Compound 73, N^3-(3-Chloro-4-fluoro-phenyl)-7-ethyl-furo[2,3-c]pyridine-2,3-diamine]	< 200	< 200	< 500	–
N#Cc1nccc2c(Nc3cc(F)cc(F)c3)c(N)oc12 [Compound 186, 2-Amino-3-((3,5-difluorophenyl)amino)furo[2,3-c]pyridine-7-carbonitrile]	> 1000	> 1000	500 to 2000	–
COc1cc(Nc2c(N)oc3cnccc23)ccc1Cl [Compound 9, N^3-(4-Chloro-3-methoxyphenyl)furo[2,3-c]pyridine-2,3-diamine]	> 1000	200 to 1000	500 to 2000	–
Cc1cc(-c2nccc3c(Nc4ccccc4Cl)c(N)oc23)ccn1 [Compound 206, N^3-(2-chlorophenyl)-7-(2-methylpyridin-4-yl)furo[2,3-c]pyridine-2,3-diamine]	< 200	< 200	500 to 2000	–
2-Amino-3-((3-chloro-4-fluorophenyl)amino)furo[2,3-c]pyridine-7-carbonitrile [Compound 106]	> 1000	> 1000	500 to 2000	–
Nc1oc2cnccc2c1Nc1cc(Cl)c(F)c(Cl)c1 [Compound 47, N^3-(3,5-Dichloro-4-fluorophenyl)furo[2,3-c]pyridine-2,3-diamine]	> 1000	200 to 1000	500 to 2000	–
Cc1cccc(Nc2c(N)oc3cc(C#N)ccc23)c1 [Compound 114, 2-Amino-3-(m-tolylamino)benzofuran-6-carbonitrile]	200 to 1000	< 200	> 2000	–
C#Cc1cccc(Nc2c(N)oc3c(C)nccc23)c1 [Compound 93, N^3-(3-ethynylphenyl)-7-methylfuro[2,3-c]pyridine-2,3-diamine]	200 to 1000	< 200	500 to 2000	–
CCCNC(=O)c1cc(-c2nccc3c(Nc4ccc(F)c(Cl)c4)c(N)oc23)ccn1 [Compound 253, 4-(2-Amino-3-((3-chloro-4-fluorophenyl)amino)furo[2,3-c]pyridin-7-yl)-N-propylpicolinamide]	< 200	< 200	> 2000	–
Nc1oc2c(-c3ccccc3Cl)nccc2c1Nc1ccc(F)c(F)c1 [Compound 197, 7-(2-Chlorophenyl)-N^3-(3,4-difluorophenyl)furo[2,3-c]pyridine-2,3-diamine]	< 200	< 200	< 500	–
CC(F)(F)c1cc(Nc2c(N)oc3cnccc23)ccc1F [Compound 69, N^3-(3-(1,1-Difluoroethyl)-4-fluorophenyl)furo[2,3-c]pyridine-2,3-diamine]	200 to 1000	< 200	> 2000	–
